Measured values reported in US20230048888A1, “USE OF TRIAZOLOTRIAZINE DERIVATIVE IN TREATMENT OF DISEASES” (ZHEJIANG VIMGREEN PHARMACEUTICALS, LTD., priority 2019, published 2023).

Columns and labels:
A20 tumor cells = assay: A20 murine lymphoma (B lymphocytes) homotransplantation model; type: in vivo, BALB/c mice; settings: for TGI (%): 50 mg/kg p.o. QD
Protocol: A20 murine lymphoma (B lymphocyte) homotransplantation model is a classic pharmaceutical effect evaluation model for B lymphocyte cancer. It was constructed by subcutaneously inoculating homogeneous A20 tumor cells into the right ribs of female BALB/c mice by the same species. The test compounds were administrated to evaluate their inhibitory effects on tumor growth in the model.
A20 tumor cells were cultured in an RPMI 1640 medium containing inactivated 10% fetal bovine serum, 100 U/ml penicillin, 100 μg/ml streptomycin and 0.05 mM 2-mercaptoethanol in an incubator at 37° C. in the presence of 5% CO2; and after the cells grew all over, the tumor cells were divided and passaged in respective flasks every 3 to 4 days. The tumor cells in the logarithmic growth phase were used for in vivo inoculation of tumors.
The A20 tumor cells resuspended in a serum-free RPMI 1640 culture solution were inoculated subcutaneously at 3×10^5/100 μl to the right ribs of experimental animals. A total of 30 animals were inoculated. On the first day after tumor cell inoculation, 24 animals with a uniform body weight were selected in terms of body weight, and were grouped for dosage, with 12 animals in each group. The specific dosage regimen was carried out according to the experimental design.
Tumor volume: the tumor volume was measured 3 times a week with a vernier caliper, and the long and short diameters of the tumor were measured. The volume was calculated with a formula as follows:
volume=0.5×long diameter×short diameter^2.
Tumor growth inhibition rate (TGI, %)=(1−T/C)×100,
T/C(%)=(average tumor volume of treatment groups on the current day-average tumor volume of treatment groups on the initial day D0)/(average tumor volume of the control group on the current day-average tumor volume of the control group on the initial day D0)×100.
Statistical analysis of tumor volume was carried out between groups by the SPSS T-test.

[1] = biological target: T1, Human adenosine ADORA2B receptor membrane protein (Homo sapiens, UniProt P29275); assay: Radioisotope ligand competitive binding, ADORA2B ([3H] DPCPX); settings: ADORA2B (IC50, nM, n = 3), binding test
T1 construct: purchased PerkinElmer ES-013-M400UA
T1 sequence (P29275 1-332): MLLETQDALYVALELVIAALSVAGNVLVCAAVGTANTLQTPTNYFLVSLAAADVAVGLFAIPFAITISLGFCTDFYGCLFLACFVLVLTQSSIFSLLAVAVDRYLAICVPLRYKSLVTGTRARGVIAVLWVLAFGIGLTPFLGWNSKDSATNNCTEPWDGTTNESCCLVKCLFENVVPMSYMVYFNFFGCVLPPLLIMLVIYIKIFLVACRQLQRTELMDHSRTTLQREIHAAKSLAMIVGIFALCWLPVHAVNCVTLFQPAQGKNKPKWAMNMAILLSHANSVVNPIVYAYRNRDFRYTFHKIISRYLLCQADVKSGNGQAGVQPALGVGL
Protocol: ADORA2B: 50 mM HEPES pH 7.0, 5 mM MgCl2, 1 mM EDTA
4) Preparation of compounds: the test compounds and the reference compounds were separately diluted with 100% DMSO.
1 μL of a sample to be tested and 1 μL of a reference compound were added to a 96-well plate in sequence. […] 100 μL of cells and 100 μL of isotopes were added to all experimental wells. The 96-well plate was sealed; ADORA1, ADORA2B, and ADORA3 were incubated for 1 hour on a shaker (300 rpm) at room temperature (22° C.); and ADORA2A was incubated for 2 hours on a shaker (300 rpm) at room temperature (22° C.). At the same time, a GF/C filter plate was soaked with ADORA1, ADORA2A, ADORA2B, and ADORA3 by using 0.3% PEI for at least 30 minutes at room temperature, at 50 μL/well. After the incubation was completed, the incubated reaction system was collected onto the GF/C filter plate with a Harvester, washed 4 times and then dried for 0.5 hours in an oven at 50° C. The bottom of the dried GF/C filter plate was sealed with a film, 50 μL of scintillation solution was added to each well, which was then sealed with a Top-seal-A film. With Microbeta readings, the data was analyzed by GraphPad Prism 5.0.
% Inhibition=100×(1−(Sample_raw value−Low control_Average)/(High control_Average−Low control_Average))
The data was fitted with “log(inhibitor) vs response-variable slope” in GraphPad Prism 5.0 to obtain IC50.

[2] = system: 6-OHDA-induced contralateral rotation; assay: 6-OHDA-induced rat rotation experiment, first stage (number of rotations); type: in vivo, Wistar rats
From the text: After long-term use of levodopa, patients with Parkinson's disease are prone to drug resistance (end-of-dose phenomenon). That is, the duration of its pharmaceutical effect tends to gradually become shorter (shortened opening period), its efficacy will become weaker and weaker, and the symptoms of the patients are becoming more and more uncontrollable. By the combined use with the test compound, the efficacy of levodopa can be restored for patients with Parkinson's disease in the off phase, who have already experienced the end-of-dose phenomenon. The rat model of Parkinson's disease was constructed by fixed-point injection of 6-hydroxydopamine (6-OHDA) to damage the substantia nigra striatum, and then the animals were administrated with levodopa (L-DOPA)/Benserazide (BID) for a long term (3-4 weeks as planned).
There should be at least an interval of 1 day between rotation tests for respective doses. A total of 6 tests were carried out in the first stage.
[…] injection volume: each rat was injected with 4 μl of 6-OHDA solution (2.5 μg/μl) on the left medial forebrain bundle (MFB).
Coordinates for injecting […]: by taking the anterior fontanelle as a standard reference point and with reference to the stereotactic map of rat brain, the injection was performed on the left medial forebrain bundle at: anterior(A), −2.5 mm; lateral (L), +2.0 mm; ventral (V), −8.5 mm.
[…] injection speed: the injection speed was 1 μl/min; after injection, the needle was left in situ for 5 min, and then slowly withdrawn at a speed of 1 mm/min; and the wound was then sutured. Grouping and administration were carried out according to the method of experimental design.
In the first stage, only the number of rotations of the animal was tested, and only the rotation response time was tested in the second stage.
The test results are represented as “mean±standard deviation”. The data was statistically analyzed by the SPSS16.0 software package. One-way ANOVA, paired sample T test and independent sample T test were used for comparison, with P<0.05 showing a statistical difference.

Compound: Nc1nc(NCCc2ccc(NC3COC3)cc2)nc2nc(-c3ccco3)nn12 [Compound 22, 2-(furan-2-yl)-N5-(4-(oxetan-3-ylamino)phenethyl)-[1,2,4]triazolo[1,5-a][1,3,5]triazine-5,7-diamine]
- Clinical abnormalities during the dosage (A20 tumor cells; 50 mg/kg p.o. QD 24 days): no obvious clinical abnormalities were observed
- TGI (%) (A20 tumor cells; Day 6 after tumor inoculation): 11.9%
- TGI (%) (A20 tumor cells; Day 8): 8.4%
- TGI (%) (A20 tumor cells; Day 10): 7.0%
- TGI (%) (A20 tumor cells; Day 13): 16.5%
- TGI (%) (A20 tumor cells; Day 15): 29.4%
- TGI (%) (A20 tumor cells; Day 17): 32.6%
- TGI (%) (A20 tumor cells; Day 20): 28.5%
- TGI (%) (A20 tumor cells; Day 22): 36.4%
- TGI (%) (A20 tumor cells; Day 24): 35.6%
- IC50 ([1]; Table 10 (IC50)): 344 ± 181 nM
- IC50 ([1]; Table 11): 310 nM

Compound: Cn1nnc(-c2ccc(CCNc3nc(N)n4nc(-c5ccco5)nc4n3)cc2)n1 [Compound 40, N5-(4-(2-methyl-2H-tetrazol-5-yl)phenethyl)-2-(furan-2-yl)-[1,2,4]triazolo[1,5-a][1,3,5]triazine-5,7-diamine]
- IC50 ([1]; Table 10 (IC50)): 268 ± 87.5 nM
- IC50 ([1]; Table 11): 242 nM

Compound: CC(=O)O.Nc1nc(NCCc2ccc(NC3COC3)cc2)nc2nc(-c3ccco3)nn12 [Acetate of Compound 22, 2-(furan-2-yl)-N5-(4-(oxetane-3-ylamino)phenethyl)-[1,2,4]triazolo[1,5-a][1,3,5]triazine-5,7-diamine acetate]
- Total number of rotations (60 min) ([2]; 1 mg/kg oral + L-DOPA (5 mg/kg)/Benserazide (1.25 mg/kg) i.p.): 41.4 ± 80.8
- Total number of rotations (60 min) ([2]; 3 mg/kg oral + L-DOPA (5 mg/kg)/Benserazide (1.25 mg/kg) i.p.): 36.6 ± 46.3
- Total number of rotations (60 min) ([2]; 10 mg/kg oral + L-DOPA (5 mg/kg)/Benserazide (1.25 mg/kg) i.p.): 109.4 ± 205.2
- Total number of rotations (60 min) ([2]; 30 mg/kg oral + L-DOPA (5 mg/kg)/Benserazide (1.25 mg/kg) i.p.): 285.2 ± 283.8
- Total number of rotations (60 min) ([2]; 100 mg/kg oral + L-DOPA (5 mg/kg)/Benserazide (1.25 mg/kg) i.p.): 379.3 ± 326.4
- Total number of rotations (60 min) ([2]; single oral 1 mg/kg alone): 7.7 ± 5.6
- Total number of rotations (60 min) ([2]; single oral 3 mg/kg alone): 17.1 ± 18.7
- Total number of rotations (60 min) ([2]; single oral 10 mg/kg alone): 11.6 ± 13.9
- Total number of rotations (60 min) ([2]; single oral 30 mg/kg alone): 30.7 ± 22.5
- Total number of rotations (60 min) ([2]; single oral 100 mg/kg alone): 35.2 ± 18.8
